In brackets after ≈: the same amount, converted by molar mass.
Legend:
Assay in all cases: in vitro antibacterial evaluation, MIC by broth dilution
Format in all cases: cell-based
Escherichia coli = tested on: Escherichia coli
How it was run: (§1)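 Test organisms, which included recent clinical isolates resistant to methicillin, penicillin and/or vancomycin, were inoculated at 5×10^5 CFU/mL into Muller-Hinton II […] containing antibiotic at 64-0.06 μg/mL. Minimum inhibitory concentrations were then read as the lowest level inhibiting growth.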

Streptococcus sp. = conditions: broth dilution, 18 hours at 35° C.
How it was run: as §1

Enterococcus sp. = conditions: broth dilution, 18 hours at 35° C.
How it was run: as §1

Staphylococcus sp. = conditions: broth dilution, 18 hours at 35° C.; for MIC Staphylococcus aureus (GC 1131): strain GC 1131
How it was run: as §1

CSc1ccc(C2OCC3OC(OC4C(CO)OC(Oc5ccc(CC6NC(=O)C(C(C)c7ccccc7)NC(=O)CNC(=O)C(CO)NC(=O)C(C(O)C7CNC(=N)N7C7OC(CO)C(O)C(O)C7O)NC(=O)C(C(O)C7CNC(=N)N7)NC6=O)cc5)C(O)C4O)C(O)C(O)C3O2)cc1 (centres unmarked) [Example 144]
MIC Escherichia coli (ATCC 25922) (Escherichia coli; strain ATCC 25922, 18 hours at 35° C.): 32 µg/mL (≈ 22.4 µM) | MIC Escherichia coli (GC 4559) (Escherichia coli; strain GC 4559, 18 hours at 35° C.): 32 µg/mL (≈ 22.4 µM) | MIC Streptococcus agalactiae (GC 4564) (Streptococcus sp.; Streptococcus agalactiae (GC 4564)): <0.06 µg/mL | MIC Streptococcus pneumoniae (ATCC 6301) (Streptococcus sp.; Streptococcus pneumoniae (ATCC 6301)): <0.06 µg/mL | MIC Streptococcus pneumoniae (GC 1894) (Streptococcus sp.; Streptococcus pneumoniae (GC 1894)): <0.06 µg/mL | MIC Streptococcus pneumoniae (GC 4565) (Streptococcus sp.; Streptococcus pneumoniae (GC 4565)): <0.06 µg/mL | MIC Streptococcus pyogenes (GC 4563) (Streptococcus sp.; Streptococcus pyogenes (GC 4563)): <0.06 µg/mL | MIC Streptococcus pneumoniae (ATCC 6301) (Streptococcus sp.; strain ATCC 6301): <0.06 µg/mL | MIC Streptococcus pneumoniae (GC 1894) (Streptococcus sp.; strain GC 1894): <0.06 µg/mL | MIC Streptococcus pyogenes (GC 4563) (Streptococcus sp.; strain GC 4563): <0.06 µg/mL | MIC Streptococcus agalactiae (GC 4564) (Streptococcus sp.; strain GC 4564): <0.06 µg/mL | MIC Streptococcus pneumoniae (GC 4565) (Streptococcus sp.; strain GC 4565): <0.06 µg/mL | MIC Enterococcus avium (GC 4558) (Enterococcus sp.; Enterococcus avium (GC 4558)): 4 µg/mL (≈ 2.8 µM) | MIC Enterococcus faecalis (ATCC 29212) (Enterococcus sp.; Enterococcus faecalis (ATCC 29212)): 2 µg/mL (≈ 1.4 µM) | MIC Enterococcus faecalis (GC 2242) (Enterococcus sp.; Enterococcus faecalis (GC 2242)): 2 µg/mL (≈ 1.4 µM) | MIC Enterococcus faecalis (GC 2691) (Enterococcus sp.; Enterococcus faecalis (GC 2691)): 2 µg/mL (≈ 1.4 µM) | MIC Enterococcus faecalis (GC 3059) (Enterococcus sp.; Enterococcus faecalis (GC 3059)): 4 µg/mL (≈ 2.8 µM) | MIC Enterococcus faecalis (GC 4552) (Enterococcus sp.; Enterococcus faecalis (GC 4552)): 2 µg/mL (≈ 1.4 µM) | MIC Enterococcus faecalis (GC 4553) (Enterococcus sp.; Enterococcus faecalis (GC 4553)): 4 µg/mL (≈ 2.8 µM) | MIC Enterococcus faecalis (GC 4554) (Enterococcus sp.; Enterococcus faecalis (GC 4554)): 4 µg/mL (≈ 2.8 µM) | MIC Enterococcus faecalis (GC 6189) (Enterococcus sp.; Enterococcus faecalis (GC 6189)): 2 µg/mL (≈ 1.4 µM) | MIC Enterococcus faecium (GC 2243) (Enterococcus sp.; Enterococcus faecium (GC 2243)): 2 µg/mL (≈ 1.4 µM) | MIC Enterococcus faecium (GC 4556) (Enterococcus sp.; Enterococcus faecium (GC 4556)): 2 µg/mL (≈ 1.4 µM) | MIC Enterococcus faecium (GC 4557) (Enterococcus sp.; Enterococcus faecium (GC 4557)): 2 µg/mL (≈ 1.4 µM) | MIC Enterococcus faecalis (ATCC 29212) (Enterococcus sp.; strain ATCC 29212): 2 µg/mL (≈ 1.4 µM) | MIC Enterococcus faecalis (GC 2242) (Enterococcus sp.; strain GC 2242): 2 µg/mL (≈ 1.4 µM) | MIC Enterococcus faecium (GC 2243) (Enterococcus sp.; strain GC 2243): 2 µg/mL (≈ 1.4 µM) | MIC Enterococcus faecalis (GC 2691) (Enterococcus sp.; strain GC 2691): 2 µg/mL (≈ 1.4 µM) | MIC Enterococcus faecalis (GC 3059) (Enterococcus sp.; strain GC 3059): 4 µg/mL (≈ 2.8 µM) | MIC Enterococcus faecalis (GC 4552) (Enterococcus sp.; strain GC 4552): 2 µg/mL (≈ 1.4 µM) | MIC Enterococcus faecalis (GC 4553) (Enterococcus sp.; strain GC 4553): 4 µg/mL (≈ 2.8 µM) | MIC Enterococcus faecalis (GC 4554) (Enterococcus sp.; strain GC 4554): 4 µg/mL (≈ 2.8 µM) | MIC Enterococcus faecium (GC 4556) (Enterococcus sp.; strain GC 4556): 2 µg/mL (≈ 1.4 µM) | MIC Enterococcus faecium (GC 4557) (Enterococcus sp.; strain GC 4557): 2 µg/mL (≈ 1.4 µM) | MIC Enterococcus avium (GC 4558) (Enterococcus sp.; strain GC 4558): 4 µg/mL (≈ 2.8 µM) | MIC Enterococcus faecalis (GC 6189) (Enterococcus sp.; strain GC 6189): 2 µg/mL (≈ 1.4 µM) | MIC Staphylococcus aureus (GC 1131) (Staphylococcus sp.; inoculum 5×10^5 CFU/mL): 1 µg/mL (≈ 0.7 µM) | MIC Staphylococcus aureus (ATCC 29213) (Staphylococcus sp.; strain ATCC 29213): 2 µg/mL (≈ 1.4 µM) | MIC Staphylococcus aureus (GC 1131) (Staphylococcus sp.): 1 µg/mL (≈ 0.7 µM) | MIC Staphylococcus aureus (GC 3051) (Staphylococcus sp.; strain GC 3051): 1 µg/mL (≈ 0.7 µM) | MIC Staphylococcus aureus (GC 3053) (Staphylococcus sp.; strain GC 3053): 1 µg/mL (≈ 0.7 µM) | MIC Staphylococcus aureus (GC 4541) (Staphylococcus sp.; strain GC 4541): 0.5 µg/mL (≈ 0.35 µM) | MIC Staphylococcus aureus (GC 4542) (Staphylococcus sp.; strain GC 4542): 0.5 µg/mL (≈ 0.35 µM) | MIC Staphylococcus aureus-SMITH (GC 4543) (Staphylococcus sp.; strain GC 4543): 1 µg/mL (≈ 0.7 µM) | MIC Staphylococcus aureus (GC 4544) (Staphylococcus sp.; strain GC 4544): 4 µg/mL (≈ 2.8 µM) | MIC Staphylococcus aureus (GC 4545) (Staphylococcus sp.; strain GC 4545): 1 µg/mL (≈ 0.7 µM) | MIC Staphylococcus haemolyticus (GC 4546) (Staphylococcus sp.; strain GC 4546): 1 µg/mL (≈ 0.7 µM) | MIC Coagulase Negative Staphylococcus (GC 4547) (Staphylococcus sp.; strain GC 4547): 1 µg/mL (≈ 0.7 µM) | MIC Coagulase Negative Staphylococcus (GC 4548) (Staphylococcus sp.; strain GC 4548): 0.25 µg/mL (≈ 0.175 µM) | MIC Coagulase Negative Staphylococcus (GC 4549) (Staphylococcus sp.; strain GC 4549): 0.12 µg/mL (≈ 0.0839 µM) | MIC Coagulase Negative Staphylococcus (GC 4551) (Staphylococcus sp.; strain GC 4551): 0.5 µg/mL (≈ 0.35 µM) | MIC Coagulase Negative Staphylococcus (GC 6257) (Staphylococcus sp.; strain GC 6257): 0.25 µg/mL (≈ 0.175 µM) | MIC Staphylococcus aureus-SMITH (GC 4543) (Staphylococcus sp.; strain SMITH GC 4543): 1 µg/mL (≈ 0.7 µM)
